Source: the supplement of paper PMC11821682

Tests used:
[1] = test system: Danio rerio embryo; assay: BMC10 any morphological effect or mortality at 120 hpf; higher = less toxic
Experimental: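 ZBEscreen: dechorionated Tropical 5D zebrafish embryos were exposed from 4 hpf in 96-well plates (1% DMSO, 28 °C). All compounds were first tested at 100 µM; hits were retested at 0.005-100 µM. Morphology and mortality were scored at 120 hpf and fitted as BMC10 (3-parameter log-logistic, extra risk). The embryonic photomotor response at 24 hpf and the larval photomotor response at 120 hpf are given as lowest effect levels (K-S test, p<0.01). NA = not significant up to 100 µM; NT = not tested.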

[2] = test system: HL-60; assay: Cell Health Index (toxicity pseudo-probability over dose series) (index 0-1); higher = more cytotoxic / cell stress;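 note: HL-60 cells exposed 4 h at 37 °C to ten threefold dilutions spanning 5 nM to 100 µM, multiparametric flow cytometry features scored by machine-learning classification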

| SMILES | BMC10 any morphological effect or mortality [1] | Cell Health Index [2] |
| --- | --- | --- |
| O=C(O)[C@H]1O[C@@H](Oc2cc3oc(-c4ccccc4)cc(=O)c3c(O)c2O)[C@H](O)[C@@H](O)[C@@H]1O [Baicalin] | > 100 µM | 0.718 |
| O=C1NC(=O)C(c2ccccc2)(c2ccccc2)N1 [Phenytoin] | > 100 µM | 0.193 |
| O=c1[nH]c(=O)n([C@H]2C[C@H](O)[C@@H](CO)O2)cc1C(F)(F)F [Trifluorothymidine] | > 100 µM | 0.138 |
| Nc1nc(=O)c2ncn(COC(CO)CO)c2[nH]1 [Ganciclovir] | > 100 µM | 0.179 |
| CNc1ncnc2c1ncn2[C@@H]1O[C@H](CO)[C@@H](O)[C@H]1O [N6-Methyladenosine] | > 100 µM | 0.307 |
| O=C(/C=C/c1ccc(O)c(O)c1)O[C@@H]1C[C@](OC(=O)/C=C/c2ccc(O)c(O)c2)(C(=O)O)C[C@@H](O)[C@H]1O [1,5-Dicaffeoylquinic acid] | > 100 µM | 0.569 |
| CC(=O)Oc1ccccc1C(=O)O [Aspirin] | > 100 µM | 0.198 |
| C=C[C@@H]1C2=CCOC(=O)C2=CO[C@H]1O[C@@H]1O[C@H](CO)[C@@H](O)[C@H](O)[C@H]1O [Gentiopicrin] | > 100 µM | 0.225 |
| CC(=O)Nc1ccc(C(=O)O)cc1.CC(=O)Nc1ccc(C(=O)O)cc1.CC(=O)Nc1ccc(C(=O)O)cc1.CC(O)CN(C)C.CC(O)CN(C)C.CC(O)CN(C)C.O=c1nc[nH]c2c1ncn2[C@@H]1O[C@H](CO)[C@@H](O)[C@H]1O [Inosine] | > 100 µM | 0.242 |
| O=C(/C=C/c1ccc(O)c(O)c1)O[C@@H](C(=O)O)[C@@H](OC(=O)/C=C/c1ccc(O)c(O)c1)C(=O)O [Chicoric acid] | > 100 µM | 0.468 |
| C=C1[C@H](CO)[C@@H](O)C[C@@H]1n1cnc2c(=O)nc(N)[nH]c21.O [Entecavir] | > 100 µM | 0.178 |
| CC(=O)CCCCn1c(=O)c2c(ncn2C)n(C)c1=O [Pentoxifylline] | > 100 µM | 0.147 |
| CC(=O)N(O)CCCCCNC(=O)CCC(=O)N(O)CCCCCNC(=O)CCC(=O)N(O)CCCCCN.CS(=O)(=O)O [Deferoxamine] | > 100 µM | 0.23 |
| C[C@@]1(F)[C@H](O)[C@@H](CO)O[C@H]1n1ccc(=O)[nH]c1=O [PSI-6206] | > 100 µM | 0.116 |
| COC(=O)N[C@H](C(=O)N1CCC[C@H]1c1ncc(-c2ccc(-c3ccc(-c4cnc([C@@H]5CCCN5C(=O)[C@@H](NC(=O)OC)C(C)C)[nH]4)cc3)cc2)[nH]1)C(C)C [Daclatasvir] | > 100 µM | 0.208 |
| CCOCc1nc2c(N)nc3ccccc3c2n1CC(C)(C)O [Resiquimod] | > 100 µM | 0.38 |
| CC[C@H](NC(=O)[C@H](C)NC)C(=O)N1C[C@@H](O)C[C@H]1Cc1c(-c2[nH]c3cc(F)ccc3c2C[C@@H]2C[C@H](O)CN2C(=O)[C@H](CC)NC(=O)[C@H](C)NC)[nH]c2cc(F)ccc12 [Birinapant] | > 100 µM | 0.282 |
| O=c1c2cc(O)c(O)cc2oc2cc(O)c([C@@H]3O[C@H](CO)[C@@H](O)[C@H](O)[C@H]3O)c(O)c12 [Mangiferin] | > 100 µM | 0.26 |
| Cc1ccc(S(=O)(=O)OCC(=O)Nc2ccc(C(=O)O)c(O)c2)cc1 [S3I-201] | > 100 µM | 0.259 |
| Nc1ccn([C@@H]2CS[C@H](CO)O2)c(=O)n1 [Lamivudine] | > 100 µM | 0.2 |
| CC(=O)N[C@@H](CS)C(=O)O [N-acetyl-L-Cysteine] | > 100 µM | 0.143 |
| CC(C)C[C@H](NC(=O)[C@H](CCc1ccccc1)NC(=O)CN1CCOCC1)C(=O)N[C@@H](Cc1ccccc1)C(=O)N[C@@H](CC(C)C)C(=O)[C@@]1(C)CO1 [Carfilzomib] | > 100 µM | 0.42 |
